Measured values as given in patent US11733232B2, “Method for producing disease modeling non-human animal, disease modeling non-human animal, and method for screening drug and method for determining risk of disease using the same” (National University Corporation Hokkaido University, priority 2017, dated 2023).

Columns and labels:
Type in all cases: in vivo, C57BL/6 mice
[1] = test system: mice in which sleep disorder was induced followed by transfer of EAE-pathogenic CD4 positive T cells; assay: Pathological conditions (EAE clinical score, mortality, fecal occult blood) of disease modeling mice
Protocol: Loading PAWW stress and induction of sleep disorder thereby were performed as described previously (Miyazaki, K. et al., PloS one, 2013, 8, e55452). 6-8 weeks old C57BL/6 mice were individually maintained in plastic cages with running wheels for habituation. Then, through loading PAWW stress by replacing wood beddings in the cages with water having depth of 1.5 cm to make the mice exercise continuously on the wheel for 2 days, sleep disorder was induced in the mice.
Preparation and transfer of EAE-pathogenic CD4 positive T cells were performed as described previously (Arima, Y. et al., Cell., 2012, 148, 447-457; Arima, Y. et al., eLife, 2015, 4, e08733; Ogura, H. et al., Immunity, 2008, 29, 628-636). Briefly, C57BL/6 mice were injected subcutaneously with a MOG (35-55) peptide (Sigma-Aldrich Co. LLC.) together with complete Freund's adjuvant (Sigma-Aldrich Co. LLC.) at the base of the tail, then 0, 2, and 7 days after MOG peptide injection, the mice were further injected intravenously with pertussis toxin (Sigma-Aldrich Co. LLC.). 9 days after MOG peptide injection, lymphocytes were collected from the spleens of the mice, sorted with anti-CD4 microbeads (Miltenyi Biotec, Inc.) to obtain a cell population rich in CD4 positive T cells. The resulting cell population (4×10^6 cells) was co-cultured with MOG peptide-pulsed irradiated spleen cells (1×10^7 cells) for 2 days in the presence of rIL-23 (10 ng/mL; R & D Systems, Inc.). Cells were collected from the culture medium, enriched with the anti-CD4 microbeads, and EAE-pathogenic CD4 positive T cells were prepared.
2 days after starting stress load described in (i) above, the EAE-pathogenic CD4 positive T cells (1.5×10^7 cells) prepared in (ii) above were transferred to the mice by intravenous injection to produce disease modeling mice. Also, mice into which EAE-pathogenic CD4 positive T cells were transferred without stress load, mice into which EAE-pathogenic CD4 positive T cells were not transferred after stress load, mice without stress load and without EAE-pathogenic CD4 positive T cells transfer, were prepared.
Pathological conditions of EAE in the mice prepared in Example 1 were evaluated with clinical score. Clinical score was determined as described previously (Arima, Y. et al., Cell, 2012, 148, 447-457; Arima, Y. et al., eLife, 2015, 4, e08733; Ogura, H. et al., Immunity, 2008, 29, 628-636). Clinical scores represent the severity of encephalomyelitis symptoms, and the scores increase with increasing the severity. A score of 0 is equivalent to normal state without abnormal findings, and a score of 5 is equivalent to death.
(§1) Pathological conditions of gastroenteritis in the mice prepared in Example 1 (1) were evaluated on 10 days after the transfer of EAE-pathogenic CD4 positive T cells. Stools collected from each mouse were suspended in saline (20 mL/g stool), the supernatants obtained by centrifugation (8000 rpm, 5 minutes) were diluted to 10 times with saline, and fecal occult blood test was performed with Hemastix (Registered) (Siemens Healthcare Pty, Ltd.). Bloody stool scores were calculated according to the scoring method described on the package of Hemastix.

[2] = test system: PVN and DMH neurons; assay: Anti-phosphorylated cfos immunostaining of the hypothalamus (PVN and DMH) after microinjection at the specific blood vessels; settings: 2 days after
From the text: Then, whether local inflammation in the brain causes a disease was investigated by directly injecting an inflammatory cytokine at the specific blood vessels. The head of a C57BL/6 mouse with induction of sleep disorder or a control mouse was fixed to a stereotactic device under anesthesia, fur above the skull was shaved, and the skin was cleaned with 70% ethanol. A 30-gauge needle was lowered toward the specific blood vessels (coordinates: AP −1.06 mm; ML 1 mm; DV 2.25 mm), and EAE-pathogenic CD4 positive T cells (1×10^6 cells)+bone marrow derived dendritic cells pulsed with MOG (5×10^5 cells), IFN-γ (50 ng; PeproTech, Inc.)+IL-17A (50 ng; R&D Systems, Inc.), or IL-6 (50 ng; Toray Industries, Inc.)+IL-17A (50 ng) in 0.2 μL each were microinjected over 90 seconds as described previously (Kim et al. (2011), Mol. Brain, 19, 4-6). […]
(§2) Furthermore, at the specific blood vessels of mice in which sleep disorder was induced, IL-6 and IL-17A, with or without a selective antagonist for P2X receptor which is an ATP receptor, A438079 (1 μg), were microinjected, in the same way as in the Example 3 (2). Phosphorylated cfos in the third ventricular region, bloody stool scores, and mortality were evaluated 2 days after the microinjection, and the results are shown in FIG. 34 and FIG. 35. […]

[3] = test system: specific blood vessels in the boundary area of the third ventricle, thalamus, and dentate gyrus; assay: Cell accumulation at the specific blood vessels of disease modeling mice (immunohistochemistry, flow cytometry); settings: 0.2 μL of 2 mg/ml microinjected at the specific blood vessels 4 days before T cell transfer; FIG. 22
From the text: Accumulation of MHC class II positive cells and CD4 positive T cells in the mice prepared in Example 1 (1) was investigated. The fifth lumbar vertebra and the brain were removed from the mice 10 days after transferring EAE-pathogenic CD4 positive T cells, embedded in SCEM (SECTION-LAB Co., Ltd.), and sliced to sections with a thickness of 10 μm using a microtome device, CM3050 (Leica Microsystems GmbH). Sections were collected using Cryofilm type IIIC (16UF) (SECTION-LAB Co., Ltd.), subjected to hematoxylin eosin staining, or to immunohistochemical staining with an anti-MHC class II antibody or anti-CD4 antibody, and analyzed by BZ-9000 microscope (KEYENCE Corporation) using HS ALL software in BZ-II analyzer (KEYENCE Corporation).
Furthermore, brains were removed from the mice 9 days after transferring EAE-pathogenic CD4 positive T cells, dissected into each parts of the cerebellum and brain stem, cortex, and hippocampus and interbrain, and enzymatically digested with Neural Tissue Dissection kit (Miltenyi Biotec Company) to prepare single cell suspension. […] Then, the cells were analyzed using CyAn flow cytometer (Beckman Coulter Corporation), and the obtained data were analyzed using Summit software (Beckman Coulter Corporation) or FlowJo software (Tree Star, Inc.). […]

[4] = test system: dopamine/noradrenergic neurons; assay: Immunostaining of third ventricular regions of chemically sympathectomized mice (tyrosine hydroxylase, phosphorylated CREB); settings: 0.2 μL of 2 mg/ml microinjected at the specific blood vessels 4 days before T cell transfer, 10 days after transfer, FIG. 21
Protocol: 0.2 μL each of 6-hydroxydopamine (6-OHDA) hydrochloride (2 mg/ml), which is a neurotoxin denaturalizing dopamine/noradrenergic neurons, or a vehicle 0.02% ascorbic acid was microinjected at the specific blood vessels of C57BL/6 mice 4 days before transferring EAE-pathogenic CD4 positive T cells (2 days before stress load), in the same way as in the Example 3 (2). Subsequently, induction of sleep disorder and transfer of EAE-pathogenic CD4 positive T cells were performed in the same way as in the Example 1 (1).
Photographs of the immunostained third ventricular regions of chemically sympathectomized mice 10 days after transferring EAE-pathogenic CD4 positive T cells are shown in FIG. 21. The immunostaining was performed with an anti-tyrosine hydroxylase antibody or anti-phosphorylated CREB antibody. 6-OHDA reduced tyrosine hydroxylase-positive sympathetic neurons, and suppressed phosphorylation of CREB induced by noradrenergic receptor-mediated signal transduction.

[5] = test system: C57BL/6 mouse with induction of sleep disorder; assay: Microinjection at the specific blood vessels of mice with induced sleep disorder: mortality and bloody stool scores; settings: 1 μg microinjected together with IL-6 and IL-17A at the specific blood vessels, 2 days after
Protocol: as §1
Then, whether local inflammation in the brain causes a disease was investigated by directly injecting an inflammatory cytokine at the specific blood vessels. The head of a C57BL/6 mouse with induction of sleep disorder or a control mouse was fixed to a stereotactic device under anesthesia, fur above the skull was shaved, and the skin was cleaned with 70% ethanol. […]
as §2

## NCc1cc(=O)[nH]o1 [Muscimol, muscimol]
[1]; 0.25 mg/mL microinjected into the DMH 5 days after T cell transfer, 10 days after transfer, FIG. 29B
  mortality: remarkably improved
[1]; 0.25 mg/mL microinjected into the DMH 5 days after T cell transfer, 10 days after transfer, FIG. 29C
  bloody stool scores: remarkably improved
[1]; 0.25 mg/mL microinjected into the DMH 5 days after T cell transfer, vehicle saline, FIG. 29A
  clinical scores: remarkably improved

## Nc1ncnc2c1ncn2[C@@H]1O[C@H](COP(=O)(O)OP(=O)(O)OP(=O)(O)O)[C@@H](O)[C@H]1O [ATP]
[2]; microinjected at the specific blood vessels of mice with sleep disorder (IFN-γ+IL-17A 50 ng each; ATP 2 μg), FIG. 30
  phosphorylated cfos, that is, neural activation, in the PVN and DMH: activated

## Cl.NCCc1cc(O)c(O)cc1O [6-OHDA, 6-hydroxydopamine hydrochloride]
[3]
  accumulation of CD4 positive T cells at the specific blood vessels: suppressed
  accumulation of CD11b positive MHC class II-highly expressing cells at the specific blood vessels: suppressed
[4]
  phosphorylation of CREB: suppressed
[4]; vehicle 0.02% ascorbic acid
  tyrosine hydroxylase-positive sympathetic neurons: reduced
[1]; 0.2 μL of 2 mg/ml microinjected at the specific blood vessels 4 days before T cell transfer, 10 days after transfer, FIG. 23B
  mortality: improved
[1]; 0.2 μL of 2 mg/ml microinjected at the specific blood vessels 4 days before T cell transfer, FIG. 23A
  clinical scores: improved

## Clc1cccc(-c2nnnn2Cc2cccnc2)c1Cl [A438079]
[2]; 1 μg microinjected together with IL-6 and IL-17A at the specific blood vessels of mice with sleep disorder, FIG. 34
  neural activation in the PVN and DMH (phosphorylated cfos): suppressed
[5]; FIG. 35A
  mortality: improved
[5]; FIG. 35B
  gastroenteritis (bloody stool scores): improved

## Cc1c(OCC(F)(F)F)ccnc1C[S+]([O-])c1nc2ccccc2[nH]1 (stereo not shown) [lansoprazole]
[1]; 30 mg/kg body weight orally daily after transfer, control CMC, FIG. 6B
  mortality 10 days after the transfer: remarkably reduced
[1]; 30 mg/kg body weight orally daily after transfer, control CMC, FIG. 6C
  bloody stool scores: remarkably reduced
[1]; 30 mg/kg body weight orally daily after transferring EAE-pathogenic CD4 positive T cells, control carboxymethyl cellulose, FIG. 6A
  clinical scores: remarkably reduced
